In ChEMBL document CHEMBL4007440, “Development of the First Generation of Disulfide-Based Subtype-Selective and Potent Covalent Pyruvate Dehydrogenase Kinase 1 (PDK1) Inhibitors” (J Med Chem, 2017):
Values belong to the compound of their own block, whether it stands above or below them. Calls of active or inactive are those of the source. The rule behind the calls is not given here.

What was measured:
[1] = target: T1, [Pyruvate dehydrogenase (acetyl-transferring)] kinase isozyme 1, mitochondrial (Homo sapiens, UniProt Q15118); test: Inhibition of full length His6-tagged PDK1 (unknown origin) expressed in Escherichia coli using full length His6-tagged PDHA1 as substrate after 30 mins by ELISA
T1 sequence (Q15118 whole entry): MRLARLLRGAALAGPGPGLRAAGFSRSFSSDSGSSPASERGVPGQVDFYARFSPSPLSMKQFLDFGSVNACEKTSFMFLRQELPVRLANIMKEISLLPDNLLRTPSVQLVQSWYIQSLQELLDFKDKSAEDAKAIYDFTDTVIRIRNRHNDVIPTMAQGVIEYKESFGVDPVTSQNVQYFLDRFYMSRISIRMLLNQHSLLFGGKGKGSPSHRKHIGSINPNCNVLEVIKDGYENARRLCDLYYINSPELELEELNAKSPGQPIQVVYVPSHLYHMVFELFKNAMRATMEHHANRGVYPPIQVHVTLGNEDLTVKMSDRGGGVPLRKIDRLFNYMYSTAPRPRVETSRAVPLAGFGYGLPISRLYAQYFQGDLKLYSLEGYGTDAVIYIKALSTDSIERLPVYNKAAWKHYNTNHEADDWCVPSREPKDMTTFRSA

[2] = target: T1, [Pyruvate dehydrogenase (acetyl-transferring)] kinase isozyme 1, mitochondrial; test: Ratio of Kinact to Ki for full length His6-tagged PDK1 (unknown origin) expressed in Escherichia coli
[3] = target: T1, [Pyruvate dehydrogenase (acetyl-transferring)] kinase isozyme 1, mitochondrial; test: Inhibition of full length His6-tagged PDK1 (unknown origin) expressed in Escherichia coli assessed as inactivation rate using full length His6-tagged PDHA1 as substrate up to 45 mins by ELISA
[4] = target: T1, [Pyruvate dehydrogenase (acetyl-transferring)] kinase isozyme 1, mitochondrial; test: Inhibition of PDK1 in human A549 cells assessed as reduction in phosphorylation of PDHE1 at S293 residue at 10 uM after 24 hrs by chemiluminescence/femtochemiluminescence method; type: cell-based
[5] = target: T1, [Pyruvate dehydrogenase (acetyl-transferring)] kinase isozyme 1, mitochondrial; test: Inhibition of PDK1 in human A549 cells assessed as reduction in phosphorylation of PDHE1 at S293 residue at 1 uM after 24 hrs by chemiluminescence/femtochemiluminescence method; type: cell-based
[6] = target: T1, [Pyruvate dehydrogenase (acetyl-transferring)] kinase isozyme 1, mitochondrial; test: Inhibition of PDK1 in human A549 cells assessed as reduction in phosphorylation of PDHE1 at S232 residue at 1 uM after 24 hrs by chemiluminescence/femtochemiluminescence method; type: cell-based
[7] = target: T1, [Pyruvate dehydrogenase (acetyl-transferring)] kinase isozyme 1, mitochondrial; test: Inhibition of PDK1 in human A549 cells assessed as reduction in phosphorylation of PDHE1 at S232 residue at 10 uM after 24 hrs by chemiluminescence/femtochemiluminescence method; type: cell-based
[8] = Antiproliferative activity against human GM00637 cells after 72 hrs by CCK8 assay; type: cell-based; details: GM00637, 72 h
L02 = test: Antiproliferative activity against human LO2 cells after 72 hrs by CCK8 assay; type: cell-based; details: L02, 72 h
A549 [9] = test: Antitumor activity against human A549 cells xenografted in BALB/c nude mouse assessed as reduction in tumor weight at 40 to 80 mg/kg, ip for 21 days measured on day 21 post dose; type: functional, organism-based
A549 [10] = test: Antitumor activity against human A549 cells xenografted in BALB/c nude mouse assessed as tumor growth inhibition at 40 mg/kg, ip for 21 days measured on day 21 post dose relative to control; type: functional; details: 504 h, read-out: TGI
[11] = target: [Pyruvate dehydrogenase (acetyl-transferring)] kinase isozyme 2, mitochondrial (Homo sapiens, UniProt Q15119); test: Inhibition of PDK2 (unknown origin) using full length His6-tagged PDHA1 as substrate after 30 mins by ELISA
[12] = target: [Pyruvate dehydrogenase (acetyl-transferring)] kinase isozyme 4, mitochondrial (Homo sapiens, UniProt Q16654); test: Inhibition of PDK4 (unknown origin) at 10 uM using full length His6-tagged PDHA1 as substrate after 30 mins by ELISA
Chain of [Pyruvate dehydrogenase (acetyl-transferring)] kinase isozyme 4, mitochondrial (Q16654 whole entry, looked up): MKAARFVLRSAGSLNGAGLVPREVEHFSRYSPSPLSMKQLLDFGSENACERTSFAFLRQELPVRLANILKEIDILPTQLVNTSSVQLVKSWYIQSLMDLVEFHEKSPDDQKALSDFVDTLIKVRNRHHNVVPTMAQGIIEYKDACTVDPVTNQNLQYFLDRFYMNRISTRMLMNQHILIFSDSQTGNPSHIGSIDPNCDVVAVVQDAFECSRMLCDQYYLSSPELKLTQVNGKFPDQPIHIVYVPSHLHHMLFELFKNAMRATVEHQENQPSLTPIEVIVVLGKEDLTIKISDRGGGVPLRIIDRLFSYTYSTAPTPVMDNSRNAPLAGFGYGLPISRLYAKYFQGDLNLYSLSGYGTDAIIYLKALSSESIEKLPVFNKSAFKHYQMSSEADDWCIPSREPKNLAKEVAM

A549 [13] = test: cells; details: Homo sapiens, A549, 72 h
Description: Antiproliferative activity against human A549 cells after 72 hrs by CCK8 assay

[14] = target: T1, [Pyruvate dehydrogenase (acetyl-transferring)] kinase isozyme 1, mitochondrial; test: Inhibition of PDK1 in human A549 cells assessed as increase in reactive oxygen species after 24 hrs by dihydroethidium staining based FACS analysis; type: cell-based
Mus musculus = test: Toxicity in BALB/c nude mouse assessed as body weight loss at 40 to 80 mg/kg, ip for 21 days; type: organism-based; details: in vivo, 504 h
[15] = Antiproliferative activity against human Kelly cells after 72 hrs by CCK8 assay
[16] = target: [Pyruvate dehydrogenase (acetyl-transferring)] kinase isozyme 3, mitochondrial (Homo sapiens, UniProt Q15120); test: Inhibition of PDK3 (unknown origin) using full length His6-tagged PDHA1 as substrate after 30 mins by ELISA
Chain of [Pyruvate dehydrogenase (acetyl-transferring)] kinase isozyme 3, mitochondrial (Q15120 whole entry): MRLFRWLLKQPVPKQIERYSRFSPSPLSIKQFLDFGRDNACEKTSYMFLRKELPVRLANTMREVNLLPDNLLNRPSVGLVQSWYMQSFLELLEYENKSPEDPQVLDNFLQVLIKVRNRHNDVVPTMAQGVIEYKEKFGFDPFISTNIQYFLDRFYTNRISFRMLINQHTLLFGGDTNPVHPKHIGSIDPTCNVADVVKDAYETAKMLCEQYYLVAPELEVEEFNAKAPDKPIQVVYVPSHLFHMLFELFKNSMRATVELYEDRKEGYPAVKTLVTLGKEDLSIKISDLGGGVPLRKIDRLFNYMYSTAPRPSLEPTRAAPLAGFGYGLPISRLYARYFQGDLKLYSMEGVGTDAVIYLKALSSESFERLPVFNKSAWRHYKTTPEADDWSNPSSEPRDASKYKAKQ

A549 [17] = test: Antitumor activity against human A549 cells xenografted in BALB/c nude mouse assessed as tumor growth inhibition at 80 mg/kg, ip for 21 days measured on day 21 post dose relative to control; type: functional; details: 504 h, read-out: TGI
[18] = target: T1, [Pyruvate dehydrogenase (acetyl-transferring)] kinase isozyme 1, mitochondrial; test: Inhibition of PDK1 in human A549 cells assessed as reduction in phosphorylation of PDHE1 at S232 residue after 24 hrs by chemiluminescence/femtochemiluminescence method; type: cell-based
[19] = target: T1, [Pyruvate dehydrogenase (acetyl-transferring)] kinase isozyme 1, mitochondrial; test: Inhibition of PDK1 in human A549 cells assessed as reduction in phosphorylation of PDHE1 at S293 residue after 24 hrs by chemiluminescence/femtochemiluminescence method; type: cell-based
[20] = target: T1, [Pyruvate dehydrogenase (acetyl-transferring)] kinase isozyme 1, mitochondrial; test: Inhibition of full length His6-tagged PDK1 (unknown origin) expressed in Escherichia coli using full length His6-tagged PDHA1 as substrate in presence of GSH after 30 mins by ELISA
[21] = target: T1, [Pyruvate dehydrogenase (acetyl-transferring)] kinase isozyme 1, mitochondrial; test: Inhibition of PDK1 in human A549 cells assessed as reduction in extracellular acidification rate after 24 hrs by fluorescent biosensor based assay; type: cell-based

SMILES: Cc1ccc(OCC2CN(C(=S)SSC(=S)N3CCOC(COc4ccc(C)cc4)C3)CCO2)cc1 (stereo not given)
- IC50 [1]: 2410 nM

SMILES: C1CCc2nc(SSc3nc4c(s3)CCCCC4)sc2CC1
- Ratio [2]: 3.93 ×10³ /M/s
- IC50 [1]: 39 nM
- Ki [1]: 1800 nM
- Kinact [3]: 69.9 ×10⁻⁴ /s

SMILES: C1Cc2nc(SSc3nc4c(s3)CCC4)sc2C1
- IC50 [1]: 139 nM

SMILES: C1CCc2sc(SSc3nc4c(s3)CCCC4)nc2C1
- IC50 [1]: 90 nM

SMILES: CC1(C)CCc2nc(SSc3nc4c(s3)CC(C)(C)CC4)sc2C1
- IC50 [1]: 218 nM

SMILES: S=C(SSC(=S)N1CCOC(COc2cccc3ccccc23)C1)N1CCOC(COc2cccc3ccccc23)C1 (stereo not given)
- Ratio [2]: 0.03 ×10³ /M/s
- IC50 [1]: 3870 nM
- Ki [1]: 22600 nM
- Kinact [3]: 6.9 ×10⁻⁴ /s

SMILES: S=C(SSC(=S)N1CCOc2ccccc21)N1CCOc2ccccc21
- Ratio [2]: 0.06 ×10³ /M/s
- IC50 [1]: 1050 nM
- Ki [1]: 3350 nM
- Kinact [3]: 2.1 ×10⁻⁴ /s

SMILES: O=C(O)C1CCc2nc(SSc3nc4c(s3)CC(C(=O)O)CC4)sc2C1 (stereo not given)
- IC50 [1]: 130 nM

SMILES: Cc1ccc(OCC2CN(C(=S)SSC(=S)N3CCCOC(COc4ccc(C)cc4)C3)CCCO2)cc1 (stereo not given)
- IC50 [1]: > 10000 nM

SMILES: C1Cc2nc(SSc3nc4c(s3)COCC4)sc2CO1
- IC50 [1]: 169 nM

Continued, in another order:

- IC50 [1]: 1700 nM
SMILES: CN(C)C(=O)OCC1CN(C(=S)SSC(=S)N2CCOC(COC(=O)N(C)C)C2)CCO1 (stereo not given)

- IC50 [1]: 350 nM
SMILES: COCC1CN(C(=S)SSC(=S)N2CCCOC(COC)C2)CCCO1 (stereo not given)

- inhibition [4]: Active
- inhibition [5]: Active
- inhibition [6]: Active
- IC50 [1]: 113 nM
- inhibition [7]: Active
SMILES: CC(=O)OCC1CN(C(=S)SSC(=S)N2CCOC(COC(C)=O)C2)CCO1 (stereo not given)

- inhibition [4]: Active
- inhibition [5]: Active
- inhibition [6]: Active
- IC50 [1]: 85 nM
- inhibition [7]: Active
SMILES: COC(=O)C1CN(C(=S)SSC(=S)N2CCOC(C(=O)OC)C2)CCO1 (stereo not given)

- inhibition [4]: Active
- inhibition [5]: Active
- inhibition [6]: Active
- IC50 [1]: 26 nM
- Ki [1]: 109 nM
- inhibition [7]: Active
- Ki [11]: 1280 nM
- inhibition [12]: inactive
- IC50 (A549 [13]): 225 nM
- inhibition [14]: Dose-dependent effect
- Ki [16]: 7760 nM
- inhibition [18]: Dose-dependent effect
- inhibition [19]: Dose-dependent effect
- inhibition [20]: inactive
- inhibition [21]: Dose-dependent effect
SMILES: S=C(SSC(=S)N1CCCOCC1)N1CCCOCC1
- IC50 [8]: > 10000 nM
- IC50 (L02): > 10000 nM
- Activity (A549 [9]): Active
- inhibition in vivo at 40 mg/kg (A549 [10]): 26.2%
- Activity (Mus musculus): Non-Toxic
- IC50 [15]: 57 nM
- inhibition in vivo at 80 mg/kg (A549 [17]): 47.8%

- IC50 [1]: 126 nM
SMILES: O=C(O)C1CN(C(=S)SSC(=S)N2CCOC(C(=O)O)C2)CCO1 (stereo not given)

- inhibition [4]: Active
- inhibition [5]: Active
- inhibition [6]: Active
- IC50 [1]: 72 nM
- inhibition [7]: Active
SMILES: CCOC[C@@H]1COCCN1C(=S)SSC(=S)N1CCOC[C@H]1COCC

- IC50 [1]: 6830 nM
SMILES: OCCOCC1CN(C(=S)SSC(=S)N2CCCOC(COCCO)C2)CCCO1 (stereo not given)

- inhibition [4]: Active
- inhibition [5]: Active
- inhibition [6]: Active
- IC50 [1]: 24 nM
- Ki [1]: 110 nM
- inhibition [7]: Active
- Ki [11]: 702 nM
- inhibition [12]: inactive
- IC50 (A549 [13]): 957 nM
- inhibition [14]: Dose-dependent effect
- Ki [16]: 2990 nM
- inhibition [18]: Dose-dependent effect
- inhibition [19]: Dose-dependent effect
- inhibition [20]: inactive
- inhibition [21]: Dose-dependent effect
SMILES: COC[C@@H]1COCCN1C(=S)SSC(=S)N1CCOC[C@H]1COC
- IC50 [8]: > 10000 nM
- IC50 (L02): > 10000 nM
- inhibition in vivo at 40 mg/kg (A549 [10]): 11%
- IC50 [15]: 1430 nM
- inhibition in vivo at 80 mg/kg (A549 [17]): 20%

- Ratio [2]: 0.07 ×10³ /M/s
- IC50 [1]: 395 nM
- Ki [1]: 872 nM
- Kinact [3]: 4.74 ×10⁻⁴ /s
SMILES: OC1CN(C(=S)SSC(=S)N2CC(O)C2)C1

- inhibition [4]: Active
- inhibition [5]: Active
- inhibition [6]: Active
- IC50 [1]: 96 nM
- inhibition [7]: Active
SMILES: CC1CN(C(=S)SSC(=S)N2CCOC(C)C2)CCO1 (stereo not given)

- IC50 [1]: 609 nM
SMILES: S=C(SSC(=S)N1CCCOC(COc2ccccc2)C1)N1CCCOC(COc2ccccc2)C1 (stereo not given)
